Laboratory results reported in the supplement of paper PMC10307832.

Tests used:
Assay in all cases: relative viability (nuclei count vs DMSO), 5 days (fraction); higher = more cells survive
Halofuginone + OSI-027 = compound: O=C(C[C@H]1NCCC[C@@H]1O)Cn1cnc2cc(Br)c(Cl)cc2c1=O (racemic) [Halofuginone] + COc1cccc2cc(-c3nc([C@H]4CC[C@H](C(=O)O)CC4)n4ncnc(N)c34)[nH]c12 [OSI-027] (partner 0.5 µM)
How it was run: (§1)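 Five library-drug doses in √10 steps were combined with a fixed anchor-drug dose, or a single drug was given alone, by pin tool to lung cancer cell lines in 1536-well plates the day after seeding. Nuclei were stained and counted after 5 days. Relative viability is the nuclei count in treated wells over that in vehicle wells, taken as the median of duplicate plates.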

Cediranib + Navitoclax = compound: COc1cc2c(Oc3ccc4[nH]c(C)cc4c3F)ncnc2cc1OCCCN1CCCC1 [Cediranib] + CC1(C)CCC(c2ccc(Cl)cc2)=C(CN2CCN(c3ccc(C(=O)NS(=O)(=O)c4ccc(N[C@H](CCN5CCOCC5)CSc5ccccc5)c(S(=O)(=O)C(F)(F)F)c4)cc3)CC2)C1 [Navitoclax] (partner 0.5 µM)
How it was run: as §1

Decitabine + Olaparib = compound: Nc1ncn([C@H]2C[C@H](O)[C@@H](CO)O2)c(=O)n1 [Decitabine] + O=C(c1cc(Cc2n[nH]c(=O)c3ccccc23)ccc1F)N1CCN(C(=O)C2CC2)CC1 [Olaparib] (partner 8 µM)
How it was run: as §1

Cediranib + Linsitinib = compound: COc1cc2c(Oc3ccc4[nH]c(C)cc4c3F)ncnc2cc1OCCCN1CCCC1 [Cediranib] + C[C@]1(O)C[C@@H](c2nc(-c3ccc4ccc(-c5ccccc5)nc4c3)c3c(N)nccn32)C1 [Linsitinib] (partner 1 µM)
How it was run: as §1

Cell Line | relative viability (Halofuginone + OSI-027; first compound 0.001 µM) | relative viability (Halofuginone + OSI-027; first compound 0.003162 µM) | relative viability (Halofuginone + OSI-027; first compound 0.01 µM) | relative viability (Halofuginone + OSI-027; first compound 0.03162 µM) | relative viability (Halofuginone + OSI-027; first compound 0.1 µM) | relative viability (Cediranib + Navitoclax; first compound 0.04 µM) | relative viability (Cediranib + Navitoclax; first compound 0.4 µM) | relative viability (Cediranib + Navitoclax; first compound 1.265 µM) | relative viability (Cediranib + Navitoclax; first compound 4 µM) | relative viability (Decitabine + Olaparib; first compound 0.04 µM) | relative viability (Decitabine + Olaparib; first compound 0.1265 µM) | relative viability (Decitabine + Olaparib; first compound 0.4 µM) | relative viability (Decitabine + Olaparib; first compound 1.265 µM) | relative viability (Decitabine + Olaparib; first compound 4 µM) | relative viability (Cediranib + Linsitinib; first compound 0.04 µM) | relative viability (Cediranib + Linsitinib; first compound 0.4 µM) | relative viability (Cediranib + Linsitinib; first compound 1.265 µM) | relative viability (Cediranib + Linsitinib; first compound 4 µM) | relative viability (Cediranib + Navitoclax; first compound 0.1265 µM) | relative viability (Cediranib + Linsitinib; first compound 0.1265 µM)
NCI-H1395 | 0.665 | 0.656 | 0.789 | 0.594 | 0.683 | 1.23 | 1.23 | 1.13 | 1.05 | 0.518 | 0.432 | 0.465 | 0.438 | 0.418 | 0.937 | 1.11 | 1.16 | 0.936 | – | –
HOP-62 | 0.782 | 0.803 | 0.826 | 0.727 | 0.576 | 1.08 | 0.867 | 1.1 | 1.14 | 0.108 | 0.141 | 0.0882 | 0.0978 | 0.132 | 1.11 | 1.04 | 0.853 | 1.18 | 0.892 | –
LK-2 | 0.24 | 0.237 | 0.201 | 0.221 | 0.167 | 1 | 0.768 | 0.828 | 0.861 | 0.497 | 0.38 | 0.297 | 0.211 | 0.24 | 0.944 | 0.651 | 0.548 | 0.51 | 0.848 | 0.492
SW 1573 | 0.919 | 0.85 | 0.571 | 0.509 | 0.143 | 0.925 | 0.872 | 1.01 | 1.05 | 0.257 | 0.239 | 0.17 | 0.127 | 0.111 | 0.71 | 0.743 | 0.754 | 0.861 | 1.06 | 0.698
SK-LU-1 | 0.388 | 0.399 | 0.406 | 0.341 | 0.276 | 1.1 | 0.859 | 0.654 | 1.04 | 0.274 | 0.244 | 0.214 | 0.247 | 0.253 | 1.18 | 0.979 | 1.06 | 1.07 | 0.999 | 1.04
NCI-H23 | 0.755 | 0.554 | 0.545 | 0.441 | 0.344 | 0.974 | 0.615 | 0.702 | 0.794 | 0.229 | 0.2 | 0.166 | 0.134 | 0.154 | 0.698 | 0.542 | 0.442 | 0.682 | – | –
NCI-H1355 | 0.41 | 0.423 | 0.393 | 0.463 | 0.303 | 0.94 | 0.898 | 0.936 | 1.04 | 0.33 | 0.348 | 0.245 | 0.194 | 0.195 | 0.8 | 0.781 | 0.813 | 0.96 | 0.954 | 0.866
COR-L23 | 0.769 | 0.86 | 0.72 | 0.677 | 0.302 | 0.966 | 0.893 | 0.922 | 1.03 | 0.166 | 0.181 | 0.177 | 0.143 | 0.119 | 1.08 | 0.939 | 0.806 | 1.14 | 1.14 | 0.871
NCI-H2023 | 0.488 | 0.421 | 0.36 | 0.3 | 0.0722 | 0.997 | 1.01 | 0.997 | 0.988 | 0.137 | 0.15 | 0.126 | 0.0911 | 0.0823 | 0.656 | 0.638 | 0.588 | 0.765 | 1.02 | 0.641
A-427 | 0.472 | 0.483 | 0.385 | 0.445 | 0.419 | 0.903 | 0.909 | 0.875 | 0.94 | 0.474 | 0.443 | 0.281 | 0.248 | 0.217 | 1.17 | 0.984 | 1.07 | 1.17 | – | –
NCI-H1793 | 0.299 | 0.253 | 0.297 | 0.288 | 0.196 | 0.59 | 0.461 | – | 0.46 | 0.455 | 0.307 | 0.281 | 0.19 | 0.212 | 0.903 | 0.747 | – | 0.968 | 0.468 | 0.935
NCI-H596 | 0.923 | 0.938 | 0.845 | 0.67 | 0.354 | 0.943 | 0.938 | 0.879 | 0.996 | 0.609 | 0.602 | 0.353 | 0.431 | 0.56 | 1.16 | 1.11 | 1.05 | 1.09 | 0.926 | 1.07
LU99A | 0.36 | 0.32 | 0.281 | 0.288 | 0.254 | 0.787 | 0.813 | 0.698 | 0.969 | 0.247 | 0.238 | 0.217 | 0.193 | 0.187 | 0.517 | 0.565 | 0.518 | 0.573 | – | –
NCI-H2009 | 0.835 | 0.795 | 0.655 | 0.468 | 0.264 | 1.2 | 1.16 | 1.14 | 1.11 | 0.475 | 0.261 | 0.322 | 0.215 | 0.293 | 1.2 | 1.18 | 1.19 | 1.16 | 1.14 | 1.18
